Test results as given in patent publication EP1333824B1, “TREATMENT OF SEXUAL DYSFUNCTION WITH BOMBESIN RECEPTOR ANTAGONISTS” (Warner-Lambert Company LLC, priority 2000, dated 2002).

What was measured:
human GRP receptor (BB2) = target: T1, human GRP receptor (BB2) (Homo sapiens, UniProt P30550); experiment: BB2 binding assay ([125I][Tyr4]bombesin, CHO-K1 cell membranes); conditions: Table 7; N-terminal sulfonamide derivatives
T1 construct: expressed in transfected cells
Description: In the following experiments, measurement of BB1 and BB2 binding was as follows. […] The final pellet was resuspended in assay buffer to a final cell concentration of 1.5 × 10^5/mL. […] Nonspecific binding was defined by 1µM bombesin. […] Radioactivity bound was determined using a gamma counter.
All competition data was analysed using nonlinear regression utilizing iterative curve-plotting procedures in Prism® (GraphPad Software Inc., San Diego, USA).

[1] = tested on: Ovariectomised adult female Sprague Dawley rats; experiment: Female rat sexual proceptivity test (time investigating male vs female stimulus); assay type: in vivo
Description: Ovariectomised adult female Sprague Dawley rats (180-200g, from Charles River) were housed in groups of 6 in a reversed lighting system of 12h light:dark (lights off 7.00-19.00h). Two weeks after ovariectomy they were used for sexual activity tests. The experiments started at least 5h into the dark period.
Tests were carried out in a circular arena of 90cm diameter, surrounded by a 30cm high wall. Two small cages with wire-mesh front (15x15cm) are fixed into the wall such that the front of the cage is «flush» with the wall and the 2 cages are opposite each other. They contained two stimuli animals: an intact sexually experienced male and a receptive female (ovariectomised, primed with 5µg oestradiol benzoate dissolved in corn oil and injected subcutaneously 48 hours before the test and with 0.5 mg of progesterone four hours before the test). Sexually naive test and control animals were used. Forty eight hours before the tests, both the test and control animals were primed with 5µg oestradiol benzoate. For animals used as positive controls, progesterone (0.5mg/0.1ml) was dissolved in corn oil and administered subcutaneously (s.c.), 4h before the test. Test and control animals were introduced one at a time for 10 minute periods into the arena. During the 10min test, the time that the test or positive control animal spent investigating each stimulus animal was noted. The arena was thoroughly cleaned between animals. The position of the male/female stimuli boxes was randomised between animals, in order to avoid place preference. The difference in the percentage of time spent investigating the male minus the female stimuli was calculated, out of the total time spent investigating stimuli animals. […]
Ovariectomised adult female Sprague Dawley rats (180-200g) were housed in groups of 5 in a reversed lighting system of 12h light:dark (lights off 5.00-17.00h). They were used for the experiments at least two weeks after ovariectomy. Forty eight hours before tests, the animals were primed with oestradiol benzoate (5µg/0.1ml in corn oil, s.c.). On day 1, progesterone (0.5mg/0.1ml, in corn oil, s.c.) was administered to one of the groups 4h before tests, as a positive control. […] The test lasted 10 minutes and was carried out as described before. The difference in the percentage of time spent investigating the male minus the female stimuli was calculated, out of the total time spent investigating stimuli animals. Animals were submitted to a test on day 1 and on day 15. […] On day 15 the test took place again, as described for day 1. […]

T1 sequence (P30550 whole entry): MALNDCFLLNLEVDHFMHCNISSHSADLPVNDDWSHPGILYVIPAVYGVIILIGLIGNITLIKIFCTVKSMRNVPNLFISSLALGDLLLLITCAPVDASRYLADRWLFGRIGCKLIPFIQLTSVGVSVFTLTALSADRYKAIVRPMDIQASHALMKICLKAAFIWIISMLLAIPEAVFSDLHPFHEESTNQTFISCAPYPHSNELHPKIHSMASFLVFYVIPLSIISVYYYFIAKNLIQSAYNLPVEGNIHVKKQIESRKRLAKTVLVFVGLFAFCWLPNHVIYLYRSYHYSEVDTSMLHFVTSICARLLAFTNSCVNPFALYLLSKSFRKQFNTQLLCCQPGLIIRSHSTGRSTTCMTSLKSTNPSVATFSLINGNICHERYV

| IC50 (human GRP receptor (BB2)) | Compound | other results |
| --- | --- | --- |
| > 10 µM | Cc1nc(S(=O)(=O)N[C@@](C)(Cc2c[nH]c3ccccc23)C(=O)NCC2(c3ccccn3)CCCCC2)cn1C [Example 144, (S)-2-(1,2-Dimethyl-1H-imidazole-4-sulfonylamino)-3-(1H-indol-3-yl)-2-methyl-N-(1-pyridin-2-yl-cyclohexylmethyl)-propionamide] |  |
| > 10 µM | C[C@@](Cc1c[nH]c2ccccc12)(NS(=O)(=O)c1cccc2cccc([N+](=O)[O-])c12)C(=O)NCC1(c2ccccn2)CCCCC1 [Example 146, (S)-3-(1H-Indol-3-yl)-2-methyl-2-(8-nitro-naphthalene-1-sulfonylamino)-N-(1-pyridin-2-yl-cyclohexylmethyl)-propionamide] |  |
|  | C[C@@](Cc1c[nH]c2ccccc12)(NS(=O)(=O)c1cc([N+](=O)[O-])ccc1Cl)C(=O)NCC1(c2ccccn2)CCCCC1 [Example 147, (S)-2-(2-Chloro-5-nitro-benzenesulfonylamino)-3-(1H-indol-3-yl)-2-methyl-N-(1-pyridin-2-yl-cyclohexylmethyl)-propionamide] | BB2 IC50 (human GRP receptor (BB2)): Ia |
|  | C[C@@](Cc1c[nH]c2ccccc12)(NS(=O)(=O)c1c(Cl)cc(Cl)cc1Cl)C(=O)NCC1(c2ccccn2)CCCCC1 [Example 148, (S)-3-(1H-Indol-3-yl)-2-methyl-N-(1-pyridin-2-yl-cyclohexylmethyl)-2-(2,4,6-trichloro-benzenesulfonylamino)-propionamide] | BB2 IC50 (human GRP receptor (BB2)): Ia |
| > 10 µM | C[C@@](Cc1c[nH]c2ccccc12)(NS(=O)(=O)c1ccc(Cl)cc1[N+](=O)[O-])C(=O)NCC1(c2ccccn2)CCCCC1 [Example 149, (S)-2-(4-Chloro-2-nitro-benzenesulfonylamino)-3-(1H-indol-3-yl)-2-methyl-N-(1-pyridin-2-yl-cyclohexylmethyl)-propionamide] |  |
| > 10 µM | C[C@@](Cc1c[nH]c2ccccc12)(NS(=O)(=O)c1ccc(S(=O)(=O)c2ccccc2)s1)C(=O)NCC1(c2ccccn2)CCCCC1 [Example 150, (S)-2-(5-Benzenesulfonyl-thiophene-2-sulfonylamino)-3-(1H-indol-3-yl)-2-methyl-N-(1-pyridin-2-yl-cyclohexylmethyl)-propionamide] |  |
| > 10 µM | C[C@@](Cc1c[nH]c2ccccc12)(NS(=O)(=O)c1ccc(OC(F)(F)F)cc1)C(=O)NCC1(c2ccccn2)CCCCC1 [Example 151, (S)-3-(1H-Indol-3-yl)-2-methyl-N-(1-pyridin-2-yl-cyclohexylmethyl)-2-(4-trifluoromethoxy-benzenesulfonylamino)-propion amide] |  |
| > 10 µM | COC(=O)c1ccccc1S(=O)(=O)N[C@@](C)(Cc1c[nH]c2ccccc12)C(=O)NCC1(c2ccccn2)CCCCC1 [Example 155, 2-{(S)-2-(1H-Indol-3-yl)-1-methyl-1-[(1-pyridin-2-yl-cyclohexylmethyl)-carbamoyl]-ethylsulfamoyl} -benzoic acid methyl ester] |  |
| > 10 µM | COc1cc(C)ccc1S(=O)(=O)N[C@@](C)(Cc1c[nH]c2ccccc12)C(=O)NCC1(c2ccccn2)CCCCC1 [Example 159, (S)-3-(1H-Indol-3-yl)-2-(2-methoxy-4-methyl-benzenesulfonylamino)-2-methyl-N-(1-pyridin-2-yl-cyclohexylmethyl)-propionamide] |  |
| > 10 µM | C[C@@](Cc1c[nH]c2ccccc12)(NS(=O)(=O)c1ccc(-c2ccccn2)s1)C(=O)NCC1(c2ccccn2)CCCCC1 [Example 160, (S)-3-(1H-Indol-3-yl)-2-methyl-N-(1-pyridin-2-yl-cyclohexylmethyl)-2-(5-pyridin-2-yl-thiophene-2-sulfonylamino)-propionamide] |  |
| > 10 µM | C[C@@](Cc1c[nH]c2ccccc12)(NS(=O)(=O)c1cnc(Cl)c(Br)c1)C(=O)NCC1(c2ccccn2)CCCCC1 [Example 161, (S)-2-(5-Bromo-6-chloro-pyridine-3-sulfonylamino)-3-(1H-indol-3-yl)-2-methyl-N-(1-pyridin-2-yl-cyclohexylmethyl)-propionamide] |  |
| > 10 µM | C[C@@](Cc1c[nH]c2ccccc12)(NS(=O)(=O)c1ccc(S(C)(=O)=O)cc1)C(=O)NCC1(c2ccccn2)CCCCC1 [Example 163, (S)-3-(1H-Indol-3-yl)-2-(4-methanesulfonyl-benzenesulfonylamino)-2-methyl-N-(1-pyridin-2-yl-cyclohexylmethyl)-propionamide] |  |
| > 10 µM | CC(C)(C)c1ccc(S(=O)(=O)N[C@@](C)(Cc2c[nH]c3ccccc23)C(=O)NCC2(c3ccccn3)CCCCC2)cc1 [Example 164, (S)-2-(4-tert-Butyl-benzenesulfonylamino)-3-(1H-indol-3-yl)-2-methyl-N-(1-pyridin-2-yl-cyclohexylmethyl)-propionamide] |  |
| > 10 µM | Cc1cc(S(=O)(=O)N[C@@](C)(Cc2c[nH]c3ccccc23)C(=O)NCC2(c3ccccn3)CCCCC2)c(Cl)cc1Cl [Example 165, (S)-2-(2,4-Dichloro-5-methyl-benzenesulfonylamino)-3-(1H-indol-3-yl)-2-methyl-N-(1-pyridin-2-yl-cyclohexylmethyl)-propionamide] |  |
| > 10 µM | CCCCc1ccc(S(=O)(=O)N[C@@](C)(Cc2c[nH]c3ccccc23)C(=O)NCC2(c3ccccn3)CCCCC2)cc1 [Example 168, (S)-2-(4-Butyl-benzenesulfonylamino)-3-(1H-indol-3-yl)-2-methyl-N-(1-pyridin-2-yl-cyclohexylmethyl)-propionamide] |  |
|  | CC(=O)[C@H]1CC[C@H]2[C@@H]3CCC4=CC(=O)CC[C@]4(C)[C@H]3CC[C@]12C [progesterone, reference compound] | proceptivity, day 1 ([1]; Example 3, Compound (1) 15mg/kg i.p. 1h before test, progesterone 0.5mg/0.1ml s.c. 4h before, vs vehicle, P<0.01): stimulatory effect on proceptivity; percentage of time spent investigating the male stimulus ([1]; Example 5, progesterone 0.5mg/0.1ml s.c. 4h before test, compared to vehicle group): increased the percentage of time spent investigating the male stimulus |
|  | neuromedin B [NMB, reference compound] | proceptivity in progesterone-treated rats ([1]; Example 5, NMB 100ng i.c.v. 10min before tests, P<0.001 vs progesterone): significantly reduced proceptivity |

| Compound | IC50 (human GRP receptor (BB2)) | other results |
| --- | --- | --- |
| C[C@@](Cc1c[nH]c2ccccc12)(NS(=O)(=O)c1ccc([N+](=O)[O-])cc1[N+](=O)[O-])C(=O)NCC1(c2ccccn2)CCCCC1 [Example 162, (S)-2-(2,4-Dinitro-benzenesulfonylamino)-3-(1H-indol-3-yl)-2-methyl-N-(1-pyridin-2-yl-cyclohexylmethyl)-propionamide] | > 10 µM |  |
| C[C@@](Cc1c[nH]c2ccccc12)(NS(=O)(=O)c1ccc(Cl)c(C(F)(F)F)c1)C(=O)NCC1(c2ccccn2)CCCCC1 [Example 166, (S)-2-(Chloro-trifluoromethyl-benzenesulfonylamino)-3-(1H-indol-3-yl)-2-methyl-N-(1-pyridin-2-yl-cyclohexylmethyl)-propionamide] | > 10 µM |  |
